Source: ChEMBL document CHEMBL1144636, “Quinazolinone fungal efflux pump inhibitors. Part 3: (N-methyl)piperazine variants and pharmacokinetic optimization” (Bioorg Med Chem Lett, 2007)
One block for each compound: values may come before it.

What was measured:
Serum = assay: Protein binding in Sprague-Dawley rat serum; assay type: ADME, cell-free; parameters: concentration or dose not given beside the values
Candida albicans = assay: In vitro potentiation of fluconazole antifungal activity in Candida albicans YEM15 assessed as 8 fold reduction in fluconazole MIC; assay type: functional
Nakaseomyces glabratus = assay: In vitro potentiation of fluconazole antifungal activity in Candida glabrata YEM19 assessed as 8 fold reduction in fluconazole MIC; assay type: functional
[1] = Stability in Sprague-Dawley rat hepatocyte after 24 hrs; assay type: ADME, cell-based; details: hepatocytes, read-out: Stability
[2] = Total clearance in Sprague-Dawley rat at 5 mg/kg, iv; assay type: ADME, organism-based; parameters: dose 5 mg/kg, route intravenous; details: in vivo

Activity (Serum): 74%
remaining at 24 h [1]: 18%
SMILES: COc1ccc(N(C(=O)Nc2ccc(F)cc2)C(C)c2nc3ccccc3c(=O)n2N2CCN(C)CC2)c(OC)c1 (configuration not stated)
Activity (Candida albicans): 4 µg/mL
Activity (Nakaseomyces glabratus): 4 µg/mL

SMILES: CNCC(=O)N1CCN(n2c(C(C)N(C(=O)Nc3ccc(F)cc3)c3ccc(OC)cc3OC)nc3ccccc3c2=O)CC1 (configuration not stated)
Activity (Candida albicans): >32 µg/mL
Activity (Nakaseomyces glabratus): 4 µg/mL

SMILES: COc1ccc(N(C(=O)Nc2ccc(F)cc2)C(C)c2nc3ccccc3c(=O)n2N2CCN(C=O)CC2)c(OC)c1 (configuration not stated)
Activity (Candida albicans): 2 µg/mL
Activity (Nakaseomyces glabratus): 4 µg/mL

SMILES: COc1ccc(N(C(=O)Nc2ccc(F)cc2)C(C)c2nc3ccccc3c(=O)n2N2CCN(C(=O)[C@H]3CCCN3)CC2)c(OC)c1 (some centres not stated)
Activity (Candida albicans): >32 µg/mL
Activity (Nakaseomyces glabratus): 2 µg/mL

remaining at 24 h [1]: 4%
SMILES: COC(=O)N[C@@H]1CCN(C(=O)N2CCN(n3c(C(C)N(C(=O)Nc4ccc(F)cc4)c4ccc(OC)cc4OC)nc4ccccc4c3=O)CC2)C1 (some centres not stated)
Activity (Candida albicans): 0.25 µg/mL
Activity (Nakaseomyces glabratus): 0.5 µg/mL

SMILES: COc1ccc(N(C(=O)Nc2ccc(F)cc2)C(C)c2nc3ccccc3c(=O)n2N2CCNCC2)c(OC)c1 (configuration not stated)
Activity (Candida albicans): >32 µg/mL
Activity (Nakaseomyces glabratus): 32 µg/mL

SMILES: COc1ccc(N(C(=O)Nc2ccc(F)cc2)C(C)c2nc3ccccc3c(=O)n2N2CCCCC2)c(OC)c1 (configuration not stated)
Activity (Candida albicans): >32 µg/mL
Activity (Nakaseomyces glabratus): >32 µg/mL

SMILES: COC(=O)NCC(=O)N1CCN(n2c(C(C)N(C(=O)Nc3ccc(F)cc3)c3ccc(OC)cc3OC)nc3ccccc3c2=O)CC1 (configuration not stated)
Activity (Candida albicans): >32 µg/mL
Activity (Nakaseomyces glabratus): 2 µg/mL

Activity (Serum): 87%
clearance [2]: 125 mL/min/kg
SMILES: COC(=O)N[C@@H](C)C(=O)N1CCN(n2c([C@H](C)N(C(=O)Nc3ccc(F)cc3)c3ccc(OC)cc3OC)nc3cc(F)ccc3c2=O)CC1
Activity (Candida albicans): 0.5 µg/mL
Activity (Nakaseomyces glabratus): 0.0625 µg/mL

SMILES: COc1ccc(N(C(=O)Nc2ccc(F)cc2)C(C)c2nc3ccccc3c(=O)n2N2CCN(C(=O)C3CCCC3)CC2)c(OC)c1 (configuration not stated)
Activity (Candida albicans): 0.25 µg/mL
Activity (Nakaseomyces glabratus): 0.125 µg/mL

Activity (Serum): 82%
remaining at 24 h [1]: 7%
SMILES: COC(=O)N[C@H](C)C(=O)N1CCN(n2c(C(C)N(C(=O)Nc3ccc(F)cc3)c3ccc(OC)cc3OC)nc3ccccc3c2=O)CC1 (some centres not stated)
Activity (Candida albicans): 4 µg/mL
Activity (Nakaseomyces glabratus): 0.5 µg/mL

Activity (Serum): 98%
clearance [2]: 83.3 mL/min/kg
SMILES: COc1ccc(N(C(=O)Nc2cccc(Cl)c2)C(C)c2nc3ccccc3c(=O)n2N2CCN(C)CC2)c(OC)c1 (configuration not stated)
Activity (Candida albicans): 1 µg/mL
Activity (Nakaseomyces glabratus): 4 µg/mL

Activity (Serum): 77%
remaining at 24 h [1]: 77%
SMILES: COc1ccc(N(C(=O)Nc2ccc(F)cc2)C(C)c2nc3ccccc3c(=O)n2N2CCN(C(=O)[C@@H]3CCCN3)CC2)c(OC)c1 (some centres not stated)
Activity (Candida albicans): >32 µg/mL
Activity (Nakaseomyces glabratus): 4 µg/mL

SMILES: COc1ccc(N(C(=O)Nc2ccc(F)cc2)C(C)c2nc3ccccc3c(=O)n2N2CCN(C(=O)C3CCCO3)CC2)c(OC)c1 (configuration not stated)
Activity (Candida albicans): 0.5 µg/mL
Activity (Nakaseomyces glabratus): 0.125 µg/mL

SMILES: COc1ccc(N(C(=O)Nc2ccc(F)cc2)C(C)c2nc3ccccc3c(=O)n2N2CCN(C(=O)[C@@H]3CCCN3C)CC2)c(OC)c1 (some centres not stated)
Activity (Candida albicans): 32 µg/mL
Activity (Nakaseomyces glabratus): 2 µg/mL

remaining at 24 h [1]: 0%
SMILES: COc1ccc(N(C(=O)Nc2ccc(F)cc2)C(C)c2nc3ccccc3c(=O)n2N2CCN(C(=O)N3CCCC3)CC2)c(OC)c1 (configuration not stated)
Activity (Candida albicans): 0.0625 µg/mL
Activity (Nakaseomyces glabratus): <0.03 µg/mL

SMILES: COC(=O)N(C)[C@@H](C)C(=O)N1CCN(n2c(C(C)N(C(=O)Nc3ccc(F)cc3)c3ccc(OC)cc3OC)nc3ccccc3c2=O)CC1 (some centres not stated)
Activity (Candida albicans): 0.5 µg/mL
Activity (Nakaseomyces glabratus): 0.5 µg/mL

Activity (Serum): 82%
remaining at 24 h [1]: 39%
SMILES: COC(=O)N[C@@H](C)C(=O)N1CCN(n2c(C(C)N(C(=O)Nc3ccc(F)cc3)c3ccc(OC)cc3OC)nc3ccccc3c2=O)CC1 (some centres not stated)
Activity (Candida albicans): 2 µg/mL
Activity (Nakaseomyces glabratus): 0.25 µg/mL

SMILES: COC(=O)N[C@@H](CO)C(=O)N1CCN(n2c(C(C)N(C(=O)Nc3ccc(F)cc3)c3ccc(OC)cc3OC)nc3ccccc3c2=O)CC1 (some centres not stated)
Activity (Candida albicans): 32 µg/mL
Activity (Nakaseomyces glabratus): 8 µg/mL

SMILES: COC(=O)N[C@H](C(=O)N1CCN(n2c(C(C)N(C(=O)Nc3ccc(F)cc3)c3ccc(OC)cc3OC)nc3ccccc3c2=O)CC1)[C@H](C)O (some centres not stated)
Activity (Candida albicans): 2 µg/mL
Activity (Nakaseomyces glabratus): 2 µg/mL

SMILES: COc1ccc(N(C(=O)Nc2ccc(F)cc2)C(C)c2nc3ccccc3c(=O)n2N2CCN(C[C@@H]3CCCN3)CC2)c(OC)c1 (some centres not stated)
Activity (Candida albicans): 32 µg/mL
Activity (Nakaseomyces glabratus): 2 µg/mL

remaining at 24 h [1]: 23%
SMILES: COC(=O)N[C@H]1CCN(C(=O)N2CCN(n3c(C(C)N(C(=O)Nc4ccc(F)cc4)c4ccc(OC)cc4OC)nc4ccccc4c3=O)CC2)C1 (some centres not stated)
Activity (Candida albicans): 4 µg/mL
Activity (Nakaseomyces glabratus): 0.25 µg/mL

SMILES: CCOC(=O)N1CCN(n2c(C(C)N(C(=O)Nc3ccc(F)cc3)c3ccc(OC)cc3OC)nc3ccccc3c2=O)CC1 (configuration not stated)
Activity (Candida albicans): 0.25 µg/mL
Activity (Nakaseomyces glabratus): 0.5 µg/mL

SMILES: CCNC(=O)N1CCN(n2c(C(C)N(C(=O)Nc3ccc(F)cc3)c3ccc(OC)cc3OC)nc3ccccc3c2=O)CC1 (configuration not stated)
Activity (Candida albicans): 1 µg/mL
Activity (Nakaseomyces glabratus): 1 µg/mL

SMILES: COc1ccc(N(C(=O)Nc2ccc(F)cc2)C(C)c2nc3ccccc3c(=O)n2N2CCN(C(N)=O)CC2)c(OC)c1 (configuration not stated)
Activity (Candida albicans): 8 µg/mL
Activity (Nakaseomyces glabratus): 16 µg/mL

SMILES: COc1ccc(N(C(=O)Nc2ccc(F)cc2)C(C)c2nc3ccccc3c(=O)n2N2CCN(C(=O)[C@@H]3CCCN3C3CC3)CC2)c(OC)c1 (some centres not stated)
Activity (Candida albicans): 1 µg/mL
Activity (Nakaseomyces glabratus): 0.25 µg/mL

SMILES: COc1ccc(N(C(=O)Nc2ccc(F)cc2)C(C)c2nc3ccccc3c(=O)n2N2CCN(C(=O)[C@H](C)N3CCCC3)CC2)c(OC)c1 (some centres not stated)
Activity (Candida albicans): 8 µg/mL
Activity (Nakaseomyces glabratus): 0.25 µg/mL

SMILES: COc1ccc(N(C(=O)Nc2ccc(F)cc2)C(C)c2nc3ccccc3c(=O)n2N2CCN(C(=O)CN3CCCC3)CC2)c(OC)c1 (configuration not stated)
Activity (Candida albicans): 4 µg/mL
Activity (Nakaseomyces glabratus): 1 µg/mL

SMILES: COc1ccc(N(C(=O)Nc2ccc(F)cc2)C(C)c2nc3ccccc3c(=O)n2N2CCN(C(=O)C[C@@H]3CCCN3)CC2)c(OC)c1 (some centres not stated)
Activity (Candida albicans): >32 µg/mL
Activity (Nakaseomyces glabratus): 0.5 µg/mL

SMILES: COC(=O)N[C@H](C(=O)N1CCN(n2c(C(C)N(C(=O)Nc3ccc(F)cc3)c3ccc(OC)cc3OC)nc3ccccc3c2=O)CC1)C(C)C (some centres not stated)
Activity (Candida albicans): 1 µg/mL
Activity (Nakaseomyces glabratus): 2 µg/mL

SMILES: COc1ccc(N(C(=O)Nc2ccc(F)cc2)C(C)c2nc3ccccc3c(=O)n2N2CCN(C(=O)[C@H](C)N)CC2)c(OC)c1 (some centres not stated)
Activity (Candida albicans): >32 µg/mL
Activity (Nakaseomyces glabratus): 4 µg/mL
